What was measured:
[1] = tested on: PC-3 prostate carcinoma cells xenograft; assay: Antitumor activity in a PC-3 xenograft model; type: in vivo, NMRI nude mice; settings: 15 days of treatment over 19 days, vs vehicle group
Method: Determination of Antitumor Activity in a PC-3 Xenograft Model
PC-3 prostate carcinoma cells were originally obtained from the NCI collection and were deposited after expansion in the Roche cell bank Penzberg. Tumor cell line was routinely cultured in RPMI 1640 Medium containing 10% FBS and 2 mM L-glutamine at 37° C. in a water-saturated atmosphere at 5% CO2. Culture passage was performed with trypsin/EDTA 1× (Roche Diagnostics) splitting twice a week. Cell passage 3 was used in the present study.
At the day of cell injection, cells were harvested from culture flasks (Greiner T 75), transferred into 50 ml culture medium, washed once and resuspended in PBS. After an additional washing with PBS, the final cell titer was measured with a Neubauer-Chamber. The tumor cell suspension (PBS) was vortexed carefully (to reduce cell aggregation) and kept on ice. The cell suspension was filled into a 1.0 ml syringe. To generate primary tumors, 2×10^6 PC-3 tumor cells in a volume of 100 μl PBS were injected subcutaneously into the right flank of each mouse (NMRI nude mice). After s.c. inoculation of tumor cells, measurable tumors developed in all animals. Mice were staged and randomized on day 10 according to the primary tumor dimensions. 15 days daily oral dosing was carried out using the compound of example 1 and compound 3 of WO 93/07148, WO 95/31977, U.S. Pat. No. 5,369,108 as test article. 90 male NMRI nude mice were divided into 6 study groups. Each group consisted of 15 male animals. The individual groups were given the test article, formulated as microsuspensions in 7.5% modified gelatin with 0.22% NaCl solution, once daily by oral route over 19 days (3 cycles of 5 days treatment and a 2-day drug free period each). The application volume was 10 ml/kg. The oral doses chosen were 25, 50, 100, and 200 mg/kg of example 1 and 200 mg/kg of compound 3 of patent '108. The study was terminated on day 28 after tumor cell injection when the vehicle group reached the termination criteria.

[2] = tested on: acetylated histone H3 in HT29 human colon carcinoma xenografts; assay: Acetylation levels of histone H3 in HT29 tumor bearing mice; type: in vivo, NMRI nude mice; settings: for acetylated H3, BLU/1 μg histone protein: HT29 xenograft, mean; for acetylated H3, BLU % (BLU percent versus vehicle control): vehicle = 100
Method: Determination of Acetylation Levels of Histone H3 in Tumor Bearing Mice
The HT-29 cell line is derived from a human colon adenocarcinoma and was obtained from ATCC and kept in an in house working cell bank for pharmacological use. Cells were cultured in RPMI1640/2 mM L-Glutamin medium supplemented with 10% heat inactivated FCS. For inoculation HT29 tumor cells are removed (Trypsin-EDTA, 50 U/mg) from culture flasks and transferred into culture medium (RPMI 1640, 10% heat inactivated FCS), washed and resuspended in sterile PBS to achieve a final cell concentration of 5×10^6/100 μl. Cell suspension was carefully mixed by regular shaking to avoid cell aggregation and filled into a 1.0 ml graded syringe. After s.c. inoculation of HT29 human colon carcinoma cells (5×10^6/100 μl) in the right upper quarter of ventral breast region of NMRI nude mice, animals were inspected 2–3 times per week until xenografts reached a volume of roughly 1000 mm^3 or more, sufficient for analysis of histone acetylation. After single i.p. application of 400 mg/kg of the compound of example 1, formulated as microsuspension in 7.5% modified gelatin with 0.22% NaCl solution, the respective group of animals was sacrificed 3, 6, 12, and 24 h after dosing. Tumors were excised for analysis of acetylated histones (H3). An aliquot of tumors (ca. 200 mg) was analyzed for acetylated H3. Histones were extracted from xenografts by standardized methods (Richon, V. M., et al., PNAS 97 (2000) 10014–10019; Yoshida, M., et al., J. Biol. Chem. 265 (1990) 17174–17179), separated and acetylated H3 identified by Slot Blot and Immuno Blot techniques (SB-IB, Bio-Rad Laboratories GmbH, Munich, Germany) using anti-acetyled-H3 Pabs (UpState Biotechnology, Cat. #06-599). Histone protein was determined (Pierce Kit) and adjusted to 3 mg/ml to apply a standardized amount of 1 μg histone protein for H3 analysis in SB-IB. Quantification of acetylated H3 was performed by ECL (Enhanced Chemo Luminescence, Amersham Pharmacia, Hybond™ ECL™ Nitrocellulose membrane) measuring bioluminescence with the Lumi-Imager instrument (Roche Diagnostics). Data are expressed either as BLU/μg histone protein (BLU=Bio-Luminescence-Units), or as BLU percent versus vehicle control. After single administration of the compound of example 1, there was a marked and significant increase of acetylated H3 lasting for up to 24 h compared to the vehicle groups. The maximum acetylation was attained 6 h after dosing. A tabulated summary of the mean values and percentual changes are depicted below.

[3] = 3 h after single i.p. 400 mg/kg
[4] = 6 h after single i.p. 400 mg/kg
[5] = 12 h after single i.p. 400 mg/kg
[6] = 24 h after single i.p. 400 mg/kg

## C[C@@H](NC(=O)c1ccc(C(=O)NO)s1)c1ccccc1 [Example 1, (R)-thiophene-2,5-dicarboxylic acid 2-hydroxyamide 5-[(1-phenyl-ethyl)-amide]]
[1]; 25 mg/kg oral once daily
  tumor weight inhibition: 15%
[1]; 50 mg/kg oral once daily
  tumor weight inhibition: 36%
[1]; 100 mg/kg oral once daily
  tumor weight inhibition: 51%
[1]; 200 mg/kg oral once daily
  tumor weight inhibition: 81%
[2]; [3]
  acetylated H3, BLU/1 μg histone protein: 57824 BLU/1 μg
  acetylated H3, BLU % (BLU percent versus vehicle control): 466%
[2]; [4]
  acetylated H3, BLU/1 μg histone protein: 98717 BLU/1 μg
  acetylated H3, BLU % (BLU percent versus vehicle control): 502%
[2]; [5]
  acetylated H3, BLU/1 μg histone protein: 75378 BLU/1 μg
  acetylated H3, BLU % (BLU percent versus vehicle control): 447%
[2]; [6]
  acetylated H3, BLU/1 μg histone protein: 40965 BLU/1 μg
  acetylated H3, BLU % (BLU percent versus vehicle control): 269%
[2]; single i.p. 400 mg/kg
  duration of marked and significant increase of acetylated H3 compared to vehicle: up to 24 h
  time of maximum acetylation after dosing: 6 h
